Test results: patent US20220009894A1, “1,2,3,4-TETRAHYDROQUINOXALINE DERIVATIVE, PREPARATION METHOD THEREFOR AND APPLICATION THEREOF” (Abbisko Therapeutics Co., Ltd., priority 2019, published 2022)

Assays:
RORγt-LBD = biological target: T1, RORγt-LBD (Homo sapiens, UniProt P51449); experiment: Time-resolved fluorescence resonance energy-transfer assay (TR-FRET), co-activator peptide recruitment; format: biochemical; parameters: TR-FRET Biochemical Amax: unit not given here; conditions: for EC50: His-RORγt-LBD 30 nM, SRC peptide 500 nM, agonistic activity, averages of one or more measurements, read-out: TR-FRET Biochemical EC50/; for TR-FRET Biochemical Amax: upper activation limit, His-RORγt-LBD, SRC peptide
T1 sequence (P51449 269-508 limits assumed): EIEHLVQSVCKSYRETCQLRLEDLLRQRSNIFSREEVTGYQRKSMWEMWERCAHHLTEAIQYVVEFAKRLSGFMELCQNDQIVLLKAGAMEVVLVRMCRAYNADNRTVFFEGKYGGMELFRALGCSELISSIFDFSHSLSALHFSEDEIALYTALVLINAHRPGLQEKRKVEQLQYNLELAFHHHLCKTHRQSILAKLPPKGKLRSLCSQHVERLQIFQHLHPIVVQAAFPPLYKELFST
Method in brief: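 This agonist-mode TR-FRET used 30 nM His-tagged RORγt-LBD, 500 nM biotinylated SRC peptide, 0.25 nM Eu-anti-His and 5 nM APC-streptavidin in pH 7.0 Tris/KCl buffer with DTT and Triton. A 7-concentration, 5-fold compound series was incubated at 4 °C overnight plus 1 h at room temperature, and the 665/615 nm signal was read.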

RORγt = biological target: T2, RORγt (Homo sapiens, UniProt P51449); experiment: RORγt cellular reporter gene detection assay; format: cell-based; conditions: 24 hrs; for EC50: HEK 293 cells co-transfected with pFN26A-RORγt-LBD and pG14.35, in presence of antagonist Ursolic acid, top concentration 50 μM; for Cellular Reporter Assay Amax: upper activation limit, HEK 293 cells, in presence of antagonist Ursolic acid;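 on Cellular Reporter Assay Amax: Ursolic Acid added as 5 µL of 20 µM medium per well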
T2 construct: The plasmid of pFN26A-RORγt-LBD and pG14.35 (Promega, Cat. No. E1370) were co-transfected into HEK 293 cells; expressed in transfected cells; host or cells: HEK 293 cells (Cat. No. GNHu18)
T2 sequence (P51449 269-508 limits assumed): T1 sequence (P51449 269-508 limits assumed)
Method in brief: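 Compounds, titrated 4-fold from a 50 μM top concentration, were added with Ursolic acid to HEK293 cells carrying a RORγt-LBD plasmid and a reporter plasmid. After 24 h at 37° C, dual firefly/Renilla luciferase readout; four-parameter curves gave EC50 and maximal activation (Amax).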

| EC50 (RORγt-LBD) [nM] | TR-FRET Biochemical Amax (RORγt-LBD) | EC50 (RORγt) [nM] | Cellular Reporter Assay Amax (RORγt) | SMILES |
| --- | --- | --- | --- | --- |
| 13 | 0.76 | 733 | 2.5 | O=S(=O)(c1cccc(C(F)(F)F)c1)N1C[C@@H]2CN(C[C@H](O)CO)CCN2c2ccc(-c3cc(F)cc(OC(F)F)c3)cc21 [Example 40, (S)-3-((S)-8-(3-(difluoromethoxy)-5-fluorophenyl)-6-((3-(tri-fluoromethyl)phenyl)sulfonyl)-1,2,4,4a,5,6-hexahydro-3H-pyrazino[1,2-a]quinoxalin-3-yl) propane-1,2-diol] |
| 33.6 | 0.99 | 523 | 5.6 | C/C(=C\c1ccc2c(c1)N(S(=O)(=O)c1cccc(C(F)(F)F)c1)C[C@@H]1CN(S(N)(=O)=O)CCN21)c1c(F)cccc1Cl [Example 66, (R,E)-8-(2-(2-chloro-6-fluorophenyl)prop-1-en-1-yl)-6-((3-(trifluoromethyl)phenyl)sulfonyl)-1,2,4,4a,5,6-hexahydro-3H-pyrazino[1,2-a]quinoxaline-3-sulfonamide] |
| 28.2 | 1.15 | 267 | 2.8 | C/C(=C\c1ccc2c(c1)N(S(=O)(=O)c1cccc(C(F)(F)F)c1)C[C@@H]1CN(C3(C(N)=O)CCC3)CCN21)c1c(F)cccc1Cl [Example 79, (S,E)-1-(8-(2-(2-chloro-6-fluorophenyl)prop-1-en-1-yl)-6-((3-(trifluoromethyl)phenyl)sulfonyl)-1,2,4,4a,5,6-hexahydro-3H-pyrazino[1,2-a]quinoxalin-3-yl)cyclobutane-1-carboxamide] |
| 191 | 0.72 | ≥ 50000 |  | CC1(C)C=C(c2ccc3c(c2)N(S(=O)(=O)c2cc(C(F)(F)F)cnc2OCCO)C[C@@H]2CNCCN32)CC(C)(C)O1 [Example 88, (S)-2-((3-((8-(2,2,6,6-tetramethyl-3,6-dihydro-2H-pyran-4-yl)-1,2,3,4,4a,5-hexa hydro-6H-pyrazino[1,2-a]quinoxalin-6-yl)sulfonyl)-5-(trifluoromethyl)pyridin-2-yl)oxy)ethan-1-ol] |
| 100 | 1.10 | 602 | 3.5 | NC(=O)CN1CCN2c3ccc(/C=C/c4c(Cl)cccc4C(F)(F)F)cc3N(S(=O)(=O)c3cccc(C(F)(F)F)c3)C[C@@H]2C1 [Example 59, (S,E)-2-(8-(2-chloro-6-(trifluoromethyl)styryl)-6-((3-(trifluoromethyl)phenyl)sulfonyl)-1,2,4,4a,5,6-hexahydro-3H-pyrazino[1,2-a]quinoxalin-3-yl)acetamide] |
| 14.7 | 0.86 | 354 | 2.6 | N#CCC(=O)N1CCN2c3ccc(-c4cc(F)cc(OC(F)F)c4)cc3N(S(=O)(=O)c3cccc(C(F)(F)F)c3)C[C@@H]2C1 [Example 28, (S)-3-(8-(3-(difluoromethoxy)-5-fluorophenyl)-6-((3-(trifluoromethyl)phenyl)sulfonyl)-1,2,4,4a,5,6-hexahydro-3H-pyrazino[1,2-a]quinoxalin-3-yl)-3-oxopropanenitrile] |
| 46.4 | 0.51 | 264 | 2.1 | COc1ncc(C(F)(F)F)cc1S(=O)(=O)N1C[C@@H]2CN(CC(=O)O)CCN2c2ccc(-c3cc(F)cc(OC(F)F)c3)cc21 [Example 93, (S)-2-(8-(3-(difluoromethoxy)-5-fluorophenyl)-6-((2-methoxy-5-(trifluoromethyl)pyridin-3-yl)sulfonyl)-1,2,4,4a,5,6-hexahydro-3H-pyrazino[1,2-a]quinoxalin-3-yl)acetic acid] |

More lines, now with the values behind:

| SMILES | EC50 (RORγt-LBD) [nM] | TR-FRET Biochemical Amax (RORγt-LBD) | EC50 (RORγt) [nM] | Cellular Reporter Assay Amax (RORγt) |
| --- | --- | --- | --- | --- |
| COC(=O)CN1CCN2c3ccc(/C=C/c4c(Cl)cccc4C(F)(F)F)cc3N(S(=O)(=O)c3cccc(OC(F)(F)F)c3)C[C@@H]2C1 [Example 85, methyl (S,E)-2-(8-(2-chloro-6-(trifluoromethyl)styryl)-6-((3-(trifluoromethoxy)phenyl)sulfonyl)-1,2,4,4a,5,6-hexahydro-3H-pyrazino[1,2-a]quinoxalin-3-yl) acetate] | 75.4 | 1.01 | 279 | 1.8 |
| CC1(C)C=C(c2ccc3c(c2)N(S(=O)(=O)c2cccc(C(F)(F)F)c2)C[C@@H]2CNCCN32)CC(C)(C)O1 [Example 13, (S)-8-(2,2,6,6-tetramethyl-3,6-dihydro-2H-pyran-4-yl)-6-((3-(trifluorometh-yl)phenyl)sulfonyl)-2,3,4,4a,5,6-hexahydro-1H-pyrazino[1,2-a]quinoxaline] | 35.8 | 0.74 | 1420 | 1.7 |
| O=S1(=O)CCN2c3ccc(-c4cc(F)cc(OC(F)F)c4)cc3N(S(=O)(=O)c3cccc(C(F)(F)F)c3)CC2C1 (stereo not shown) [Example 102, 8-(3-(difluoromethoxy)-5-fluorophenyl)-6-((3-(trifluoromethyl)phenyl)sulfonyl)-1,2,4,4a,5,6-hexahydro-[1,4]thiazino[4,3-a]quinoxaline 3,3-dioxide] | 809 |  | 2150 |  |
| C/C(=C\c1ccc2c(c1)N(S(=O)(=O)c1cccc(C(F)(F)F)c1)C[C@@H]1CN(C(C)(C)C(=O)OC(C)(C)C)CCN21)c1c(F)cccc1Cl [Example 53, tert-butyl (S,E)-2-(8-(2-(2-chloro-6-fluorophenyl)prop-1-en-1-yl)-6-((3-(trifluoromethyl)phe-nyl)sulfonyl)-1,2,4,4a,5,6-hexahydro-3H-pyrazino[1,2-a]qui-noxalin-3-yl)-2-methylpropanoate] | 256 | 0.55 | ≥ 50000 |  |
| O=S(=O)(c1cccc(C(F)(F)F)c1)N1C[C@@H]2CNCCN2c2ccc(/C=C/c3c(Cl)cccc3C(F)(F)F)cc21 [Example 11, (S,E)-8-(2-chloro-6-(tri-fluoromethyl)styryl)-6-((3-(trifluoromethyl)phenyl)sulfonyl)-2,3,4,4a,5,6-hexa-hydro-1H-pyrazino[1,2-a]quinoxaline] | 21.7 | 0.82 | 429 | 3.2 |
| N#Cc1cccc(-c2ccc3c(c2)N(S(=O)(=O)c2cccc(C(F)(F)F)c2)C[C@@H]2CN(CC(=O)O)CCN32)c1F [Example 94, (S)-2-(8-(3-cyano-2-fluorophenyl)-6-((3-(trifluoromethyl)phenyl)sulfonyl)-1,2,4,4a,5,6-hexahydro-3H-pyrazino[1,2-a]quinoxalin-3-yl)acetic acid] | 159 | 0.27 | 3550 | 1.8 |
| N#Cc1cc(Cl)cc(-c2ccc3c(c2)N(S(=O)(=O)c2cccc(C(F)(F)F)c2)C[C@@H]2CN(CC(=O)O)CCN32)c1 [Example 97, (S)-2-(8-(3-chloro-5-cyanophe-nyl)-6-((3-(trifluoromethyl)phe-nyl)sulfonyl)-1,2,4,4a,5,6-hexa-hydro-3H-pyrazino[1,2-a]quinox-alin-3-yl)acetic acid] | 37 | 0.61 | 605 | 2.5 |
| N#Cc1cc(F)cc(-c2ccc3c(c2)N(S(=O)(=O)c2cccc(C(F)(F)F)c2)C[C@@H]2CN(CC(=O)O)CCN32)c1 [Example 95, (S)-2-(8-(3-cyano-5-fluorophe-nyl)-6-((3-(trifluoromethyl)phe-nyl)sulfonyl)-1,2,4,4a,5,6-hexa-hydro-3H-pyrazino[1,2-a]quin-oxalin-3-yl)acetic acid] | 41.9 | 0.40 | 649 | 1.4 |
| NS(=O)(=O)N1CCN2c3ccc(/C=C/c4c(Cl)cccc4C(F)(F)F)cc3N(S(=O)(=O)c3cccc(C(F)(F)F)c3)C[C@@H]2C1 [Example 68, (R,E)-8-(2-chloro-6-(trifluorometh-yl)styryl)-6-((3-(trifluorometh-yl)phenyl)sulfonyl)-1,2,4,4a,5,6-hexahydro-3H-pyrazino[1,2-a]quinoxaline-3-sulfonamide] | 30.5 | 1.03 | 151 | 2.5 |
| C/C(=C\c1ccc2c(c1)N(S(=O)(=O)c1cccc(C(F)(F)F)c1)C[C@@H]1CN(CC(=O)O)CCN21)c1c(F)cccc1Cl [Example 21, (S,E)-2-(8-(2-(2-chloro-6-fluoro-phenyl)prop-1-en-1-yl)-6-((3-(trifluoromethyl)phenyl)sulfonyl)-1,2,4,4a,5,6-hexa-hydro-3H-pyrazino[1,2-a]quinoxalin-3-yl)acetic acid] | 17.6 | 0.94 | 273 | 5.5 |
